Measurements: article PMC9747611 (Hypertension Research, 2022)
Where two headings read alike, the source gives them in different places.

Columns and labels:
[1] = Plasma pharmacokinetics of baxdrostat and CIN-107-M, multiple ascending dose phase 1 study; format: in vivo, human; conditions: for RAUC (accumulation ratio based on AUC) / RCmax (accumulation ratio based on Cmax): day 10 vs day 1, mean ± SD; for Cmax / Tmax / Vd/F / half-life: human, plasma, po; for Vd/F: read-out: Vss/F
Description: Subjects were randomized in a 3:1 ratio to baxdrostat or placebo once daily for 10 days as follows: • Cohort 1: 2.5 mg baxdrostat or matching placebo on a low-salt diet, 9 subjects receiving baxdrostat and 3 subjects receiving placebo • Cohort 2: 5.0 mg baxdrostat or matching placebo on a low-salt diet, 9 subjects receiving baxdrostat and 3 subjects receiving placebo • Cohort 3: 1.5 mg baxdrostat or matching placebo on a normal-salt diet, 9 subjects receiving baxdrostat and 3 subjects receiving placebo • Cohort 4: 2.5 mg baxdrostat or matching placebo on a normal-salt diet, 6 subjects receiving baxdrostat and 2 subjects receiving placebo • Cohort 5: 0.5 mg baxdrostat or matching placebo on a normal-salt diet, 9 subjects receiving baxdrostat and 3 subjects receiving placebo.
The study drug was a 2 mg/mL baxdrostat oral solution and matching oral placebo solution. Subjects received a single dose of oral solution of baxdrostat or placebo on the mornings of days 1 through 10 at 8:00 a.m. (± 2 h). On days 1 and 10, the dose was given following an overnight fast (of at least 8 h), and subjects remained fasted for at least 4 h after dosing on these days. On all other days, subjects fasted for a minimum of 2 h before and 2 h after dosing.
(§1) Plasma and urine samples were analyzed to measure concentrations of baxdrostat and its primary metabolite (CIN-107-M), aldosterone and its precursors, cortisol and its precursor, and ACTH using a validated liquid chromatography tandem mass spectrometry method (LC-MS/MS). The quantifiable ranges for both baxdrostat and its metabolite CIN-107-M in plasma and urine were 0.05 to 50 ng/mL (low range) and 5 to 2500 ng/mL (high range), using baxdrostat-d5 and CIN-107-M-d3, respectively, as the internal standards. Plasma samples were extracted by protein precipitation with methanol, followed by analysis by LC-MS/MS with electrospray ionization in positive mode and multiple reaction monitoring. All scheduled study-related laboratory tests were performed by Medpace Reference Laboratories (Cincinnati, OH, USA), Medpace Bioanalytical Laboratories (Cincinnati, OH, USA), Mercy Health—West Hospital Laboratory (Cincinnati, OH, USA), or Laboratory Corporation of America (Dublin, OH, USA).
Blood samples were collected prior to and after dosing on days 1 and 10 for measurement of plasma baxdrostat and CIN-107-M concentrations to characterize single-dose and steady-state PK. Pharmacokinetic parameters were calculated by standard noncompartmental methods using Phoenix WinNonlin™ (Certara, Inc., Princeton, NJ) and verified with SAS (SAS Institute, Inc., Cary, NC) software. […] Steady-state plasma PK parameters consisted of accumulation ratio based on Cmax (RCmax), accumulation ratio based on AUC (RAUC), apparent first-order terminal elimination rate constant (λz), terminal phase elimination half-life (t1/2), apparent plasma clearance (CLss/F), and apparent volume of distribution (Vss/F).

[2] = Urine pharmacokinetics (fraction of dose excreted renally); format: in vivo, human
Description: as §1
The cumulative amount of drug excreted in urine on day 1 (Ae,D1) and day 10 (Ae,D10), fraction of dose excreted renally on day 1 (Fe,D1) and day 10 (Fe,D10), and renal clearance on day 1 (CLR,D1) and day 10 (CLR,D10) composed single-dose urine PK parameters.

[3] = 0.5 mg oral once daily, normal-salt diet, day 10, mean ± SD
[4] = 0.5 mg oral once daily, normal-salt diet
[5] = 1.5 mg oral once daily, normal-salt diet, day 10, mean ± SD
[6] = 1.5 mg oral once daily, normal-salt diet
[7] = 2.5 mg oral once daily, low-salt diet, day 10, mean ± SD
[8] = 2.5 mg oral once daily, low-salt diet
[9] = 2.5 mg oral once daily, normal-salt diet, day 10, mean ± SD, n=5
[10] = 2.5 mg oral once daily, normal-salt diet, n=5
[11] = 5.0 mg oral once daily, low-salt diet, day 10, mean ± SD
[12] = 5.0 mg oral once daily, low-salt diet

CCC(=O)N[C@@H]1CCCc2c(-c3ccc4c(c3)CCC(=O)N4C)cncc21 [baxdrostat]
AUC0-24hr ([1]; 0.5 mg oral once daily, normal-salt diet, day 1, mean ± SD): 79.47 ± 17.34 h‧ng/mL
AUC0-tau [1, 3]: 155.19 ± 35.70 h‧ng/mL
CLss/F [1, 3]: 3.42 ± 1.01 L/h
RAUC (accumulation ratio based on AUC) [1, 4]: 1.96 ± 0.27
RCmax (accumulation ratio based on Cmax) [1, 4]: 1.83 ± 0.26
AUC0-24hr ([1]; 1.5 mg oral once daily, normal-salt diet, day 1, mean ± SD): 205.31 ± 36.74 h‧ng/mL
AUC0-tau [1, 5]: 479.67 ± 138.21 h‧ng/mL
CLss/F [1, 5]: 3.35 ± 0.92 L/h
RAUC (accumulation ratio based on AUC) [1, 6]: 2.31 ± 0.32
RCmax (accumulation ratio based on Cmax) [1, 6]: 2.13 ± 0.24
AUC0-24hr ([1]; 2.5 mg oral once daily, low-salt diet, day 1, mean ± SD): 365.79 ± 65.51 h‧ng/mL
AUC0-tau [1, 7]: 782.99 ± 143.02 h‧ng/mL
CLss/F [1, 7]: 3.28 ± 0.53 L/h
RAUC (accumulation ratio based on AUC) [1, 8]: 2.15 ± 0.16
RCmax (accumulation ratio based on Cmax) [1, 8]: 1.97 ± 0.30
AUC0-24hr ([1]; 2.5 mg oral once daily, normal-salt diet, day 1, mean ± SD): 343.98 ± 92.44 h‧ng/mL
AUC0-tau [1, 9]: 676.51 ± 343.78 h‧ng/mL
CLss/F [1, 9]: 4.32 ± 1.59 L/h
RAUC (accumulation ratio based on AUC) [1, 10]: 1.99 ± 0.45
RCmax (accumulation ratio based on Cmax) [1, 10]: 1.71 ± 0.58
AUC0-24hr ([1]; 5.0 mg oral once daily, low-salt diet, day 1, mean ± SD): 657.85 ± 137.40 h‧ng/mL
AUC0-tau [1, 11]: 1659.41 ± 440.51 h‧ng/mL
CLss/F [1, 11]: 3.21 ± 0.84 L/h
RAUC (accumulation ratio based on AUC) [1, 12]: 2.51 ± 0.26
RCmax (accumulation ratio based on Cmax) [1, 12]: 2.42 ± 0.33
dose proportionality of Cmax and AUC (power model, Hummel criteria) ([1]; day 1 (Cmax, AUC0-24 h) and day 10 (Cmax, AUC0-tau, AUC0-t)): proportional increase
Cmax ([1]; 0.5 mg, 0.5 mg oral once daily, normal-salt diet, day 1, mean ± SD, n=9, read-out: Cmax,D1): 5.36 ± 1.25 ng/mL
Tmax ([1]; 0.5 mg, 0.5 mg oral once daily, normal-salt diet, day 1, read-out: Tmax,D1, median (min, max)): 2 h
Cmax ([1]; 0.5 mg, 0.5 mg oral once daily, normal-salt diet, day 10, mean ± SD, read-out: Cmax,D10): 9.72 ± 2.27 ng/mL
Vd/F ([1]; 0.5 mg, 0.5 mg oral once daily, normal-salt diet, day 10, mean ± SD): 152 ± 44.5 L
half-life ([1]; 0.5 mg, 0.5 mg oral once daily, normal-salt diet, day 10, mean ± SD, read-out: t1/2 (converted)): 31.2 ± 5.8 h
Tmax ([1]; 0.5 mg, 0.5 mg oral once daily, normal-salt diet, day 10, read-out: Tmax,D10, median (min, max)): 2 h
Cmax ([1]; 1.5 mg, 1.5 mg oral once daily, normal-salt diet, day 1, mean ± SD, n=9, read-out: Cmax,D1): 14 ± 2.24 ng/mL
Tmax ([1]; 1.5 mg, 1.5 mg oral once daily, normal-salt diet, day 1, read-out: Tmax,D1, median (min, max)): 2.5 h
Cmax ([1]; 1.5 mg, 1.5 mg oral once daily, normal-salt diet, day 10, mean ± SD, read-out: Cmax,D10): 29.9 ± 6.1 ng/mL
Vd/F ([1]; 1.5 mg, 1.5 mg oral once daily, normal-salt diet, day 10, mean ± SD): 137 ± 15.8 L
half-life ([1]; 1.5 mg, 1.5 mg oral once daily, normal-salt diet, day 10, mean ± SD, read-out: t1/2 (converted)): 29.9 ± 7.71 h
Tmax ([1]; 1.5 mg, 1.5 mg oral once daily, normal-salt diet, day 10, read-out: Tmax,D10, median (min, max)): 2.5 h
Cmax ([1]; 2.5 mg, 2.5 mg oral once daily, low-salt diet, day 1, mean ± SD, n=9, read-out: Cmax,D1): 28.1 ± 5.9 ng/mL
Tmax ([1]; 2.5 mg, 2.5 mg oral once daily, low-salt diet, day 1, read-out: Tmax,D1, median (min, max)): 3 h
Cmax ([1]; 2.5 mg, 2.5 mg oral once daily, low-salt diet, day 10, mean ± SD, read-out: Cmax,D10): 54 ± 7.56 ng/mL
Vd/F ([1]; 2.5 mg, 2.5 mg oral once daily, low-salt diet, day 10, mean ± SD): 135 ± 36.7 L
half-life ([1]; 2.5 mg, 2.5 mg oral once daily, low-salt diet, day 10, mean ± SD, read-out: t1/2 (converted)): 28.4 ± 4.75 h
Tmax ([1]; 2.5 mg, 2.5 mg oral once daily, low-salt diet, day 10, read-out: Tmax,D10, median (min, max)): 2 h
Cmax ([1]; 2.5 mg, 2.5 mg oral once daily, normal-salt diet, day 1, mean ± SD, n=6, read-out: Cmax,D1): 26.2 ± 4.76 ng/mL
Tmax ([1]; 2.5 mg, 2.5 mg oral once daily, normal-salt diet, day 1, read-out: Tmax,D1, median (min, max)): 3 h
Cmax ([1]; 2.5 mg, 2.5 mg oral once daily, normal-salt diet, day 10, mean ± SD, n=5, read-out: Cmax,D10): 43.9 ± 18.7 ng/mL
Vd/F ([1]; 2.5 mg, 2.5 mg oral once daily, normal-salt diet, day 10, mean ± SD, n=5): 150 ± 42.4 L
half-life ([1]; 2.5 mg, 2.5 mg oral once daily, normal-salt diet, day 10, mean ± SD, n=5, read-out: t1/2 (converted)): 25.6 ± 5.95 h
Tmax ([1]; 2.5 mg, 2.5 mg oral once daily, normal-salt diet, day 10, n=5, read-out: Tmax,D10, median (min, max)): 3 h
Cmax ([1]; 5 mg, 5.0 mg oral once daily, low-salt diet, day 1, mean ± SD, n=9, read-out: Cmax,D1): 47.3 ± 12.3 ng/mL
Tmax ([1]; 5 mg, 5.0 mg oral once daily, low-salt diet, day 1, read-out: Tmax,D1, median (min, max)): 3.02 h
Cmax ([1]; 5 mg, 5.0 mg oral once daily, low-salt diet, day 10, mean ± SD, read-out: Cmax,D10): 113 ± 25.9 ng/mL
Vd/F ([1]; 5 mg, 5.0 mg oral once daily, low-salt diet, day 10, mean ± SD): 134 ± 42 L
half-life ([1]; 5 mg, 5.0 mg oral once daily, low-salt diet, day 10, mean ± SD, read-out: t1/2 (converted)): 29.4 ± 6.47 h
Tmax ([1]; 5 mg, 5.0 mg oral once daily, low-salt diet, day 10, read-out: Tmax,D10, median (min, max)): 3 h
Tmax ([1]; across doses 0.5-5.0 mg oral once daily, read-out: median Tmax (time to peak plasma concentration after dosing)): ≤ 4 h
half-life ([1]; range across doses 0.5-5.0 mg oral once daily for 10 days, read-out: mean t1/2): 26 to 31 h
baxdrostat dose recovered unchanged in the urine ([2]; day 1): Approximately 7%
baxdrostat dose recovered unchanged in the urine ([2]; steady state (day 10)): ~ 32%
